ChEMBL document CHEMBL2073809, “Interrelationship between substrates and inhibitors of human CYP3A and P-glycoprotein” (Pharm Res, 1999)

Experiments:
[1] = biological target: T1, ATP-dependent translocase ABCB1 (Homo sapiens, UniProt P08183); assay: TP_TRANSPORTER: transepithelial transport (basal to apical) in MDR1-expressing LLC-PK1 cells; assay type: functional, cell-based; conditions: pig
ABCB1 (P-glycoprotein) [2] = biological target: T2, ABCB1 (P-glycoprotein) (Homo sapiens, UniProt P08183); assay: TP_TRANSPORTER: inhibition of Digoxin transepithelial transport (basal to apical)(Digoxin: 5 uM, Terfenadine: 10 uM) in Caco-2 cells; assay type: functional, cell-based; conditions: Caco-2, probe digoxin
T2 sequence (P08183 whole entry): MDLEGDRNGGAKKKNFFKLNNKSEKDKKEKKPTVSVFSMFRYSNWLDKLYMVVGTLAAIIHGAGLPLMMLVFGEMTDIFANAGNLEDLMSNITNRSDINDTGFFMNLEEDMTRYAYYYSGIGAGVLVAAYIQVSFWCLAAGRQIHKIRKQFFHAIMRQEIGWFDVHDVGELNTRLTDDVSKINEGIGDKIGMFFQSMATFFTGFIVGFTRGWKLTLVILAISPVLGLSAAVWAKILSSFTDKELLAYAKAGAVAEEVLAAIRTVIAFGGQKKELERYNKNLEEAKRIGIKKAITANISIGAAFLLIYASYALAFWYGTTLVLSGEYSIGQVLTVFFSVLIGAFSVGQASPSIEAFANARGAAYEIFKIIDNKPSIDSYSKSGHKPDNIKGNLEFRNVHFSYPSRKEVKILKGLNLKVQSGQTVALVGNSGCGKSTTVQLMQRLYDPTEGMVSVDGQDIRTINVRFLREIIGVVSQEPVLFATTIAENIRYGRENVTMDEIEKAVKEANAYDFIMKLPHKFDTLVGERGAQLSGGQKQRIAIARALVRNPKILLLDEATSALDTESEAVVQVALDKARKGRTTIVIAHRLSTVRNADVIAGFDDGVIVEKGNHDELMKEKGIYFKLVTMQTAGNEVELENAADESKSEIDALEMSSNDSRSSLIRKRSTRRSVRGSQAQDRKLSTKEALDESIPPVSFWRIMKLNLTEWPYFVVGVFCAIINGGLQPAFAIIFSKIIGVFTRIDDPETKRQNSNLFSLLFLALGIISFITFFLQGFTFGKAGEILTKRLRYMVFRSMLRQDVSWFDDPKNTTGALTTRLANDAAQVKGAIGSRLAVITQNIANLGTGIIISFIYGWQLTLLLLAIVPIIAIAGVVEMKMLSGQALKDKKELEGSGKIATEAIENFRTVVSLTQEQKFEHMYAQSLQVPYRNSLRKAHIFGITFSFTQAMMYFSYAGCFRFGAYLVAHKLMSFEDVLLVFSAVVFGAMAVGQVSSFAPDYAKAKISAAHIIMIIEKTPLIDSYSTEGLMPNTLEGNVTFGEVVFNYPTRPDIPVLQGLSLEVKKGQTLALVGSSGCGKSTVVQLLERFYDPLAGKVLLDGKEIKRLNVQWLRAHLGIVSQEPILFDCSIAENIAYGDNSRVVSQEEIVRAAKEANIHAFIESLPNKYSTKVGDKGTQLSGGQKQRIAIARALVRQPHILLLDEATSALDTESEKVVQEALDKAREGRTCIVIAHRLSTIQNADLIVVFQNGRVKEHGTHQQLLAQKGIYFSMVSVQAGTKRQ

ABCB1 (P-glycoprotein) [3] = biological target: T2, ABCB1 (P-glycoprotein); assay: TP_TRANSPORTER: inhibition of Digoxin transepithelial transport (basal to apical)(Digoxin: 5 uM, 6beta-hydroxycortisol: 100 uM) in Caco-2 cells; assay type: functional, cell-based; conditions: Caco-2, probe digoxin
ABCB1 (P-glycoprotein) [4] = biological target: T2, ABCB1 (P-glycoprotein); assay: TP_TRANSPORTER: inhibition of Digoxin transepithelial transport (basal to apical) (Digoxin: 5 uM, Lovastatin: 100 uM) in Caco-2 cells; assay type: functional, cell-based; conditions: Caco-2, probe digoxin
ABCB1 (P-glycoprotein) [5] = biological target: T2, ABCB1 (P-glycoprotein); assay: TP_TRANSPORTER: inhibition of Digoxin transepithelial transport (basal to apical) (Digoxin: 5 uM, Erythromycin: 100 uM) in Caco-2 cells; assay type: functional, cell-based; conditions: Caco-2, probe digoxin
ABCB1 (P-glycoprotein) [6] = biological target: T2, ABCB1 (P-glycoprotein); assay: TP_TRANSPORTER: inhibition of Digoxin transepithelial transport (basal to apical)(Digoxin: 5 uM, Tamoxifen: 100 uM) in Caco-2 cells; assay type: functional, cell-based; conditions: Caco-2, probe digoxin
[7] = biological target: T3, ATP-dependent translocase ABCB1 (Mus musculus, UniProt P21447); assay: TP_TRANSPORTER: no change in plasma concentration in mdr1a(-/-) mouse; assay type: functional, organism-based; conditions: in vivo
T3 sequence (P21447 whole entry): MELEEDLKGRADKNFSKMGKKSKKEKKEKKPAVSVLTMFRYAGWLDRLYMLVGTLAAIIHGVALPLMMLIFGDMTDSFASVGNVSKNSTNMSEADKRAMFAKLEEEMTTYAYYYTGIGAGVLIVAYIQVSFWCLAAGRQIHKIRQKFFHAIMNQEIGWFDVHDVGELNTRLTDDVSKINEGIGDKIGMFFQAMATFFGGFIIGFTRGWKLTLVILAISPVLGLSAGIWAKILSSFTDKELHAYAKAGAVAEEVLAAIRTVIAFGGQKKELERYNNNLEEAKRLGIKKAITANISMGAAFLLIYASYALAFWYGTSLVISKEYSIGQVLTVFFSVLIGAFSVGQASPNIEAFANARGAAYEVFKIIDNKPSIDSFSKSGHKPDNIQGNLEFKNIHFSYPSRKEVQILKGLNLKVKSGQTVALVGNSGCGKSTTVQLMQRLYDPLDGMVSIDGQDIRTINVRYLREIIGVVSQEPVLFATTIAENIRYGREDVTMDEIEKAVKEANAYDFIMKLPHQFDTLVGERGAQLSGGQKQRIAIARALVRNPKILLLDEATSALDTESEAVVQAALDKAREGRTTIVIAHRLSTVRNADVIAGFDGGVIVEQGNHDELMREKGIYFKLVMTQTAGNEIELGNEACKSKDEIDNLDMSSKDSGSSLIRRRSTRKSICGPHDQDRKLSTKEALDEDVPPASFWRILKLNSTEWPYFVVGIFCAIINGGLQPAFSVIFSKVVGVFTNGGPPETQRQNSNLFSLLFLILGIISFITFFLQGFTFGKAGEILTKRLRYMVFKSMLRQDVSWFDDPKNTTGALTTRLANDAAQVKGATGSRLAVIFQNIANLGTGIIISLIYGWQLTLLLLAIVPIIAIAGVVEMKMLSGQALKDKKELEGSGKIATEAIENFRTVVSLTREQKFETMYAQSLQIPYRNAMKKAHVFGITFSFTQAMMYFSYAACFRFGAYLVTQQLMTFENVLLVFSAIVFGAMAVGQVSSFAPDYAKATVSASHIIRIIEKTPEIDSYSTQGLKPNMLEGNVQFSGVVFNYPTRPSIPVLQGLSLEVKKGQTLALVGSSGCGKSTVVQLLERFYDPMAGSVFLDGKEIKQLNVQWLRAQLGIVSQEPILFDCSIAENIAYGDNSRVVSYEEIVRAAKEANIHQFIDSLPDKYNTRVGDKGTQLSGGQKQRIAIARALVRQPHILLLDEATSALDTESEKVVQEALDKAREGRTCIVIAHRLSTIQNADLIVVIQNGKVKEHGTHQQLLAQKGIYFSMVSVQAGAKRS

[8] = biological target: T3, ATP-dependent translocase ABCB1; assay: TP_TRANSPORTER: no change in kidney concentration in mdr1a(-/-) mouse; assay type: functional, organism-based; conditions: in vivo
[9] = biological target: T3, ATP-dependent translocase ABCB1; assay: TP_TRANSPORTER: no change in liver concentration in mdr1a(-/-) mouse; assay type: functional, organism-based; conditions: in vivo
ABCB1 (P-glycoprotein) [10] = biological target: T2, ABCB1 (P-glycoprotein); assay: TP_TRANSPORTER: inhibition of Digoxin transepithelial transport (basal to apical)(Digoxin: 5 uM, Midazolam: 100 uM) in Caco-2 cells; assay type: functional, cell-based; conditions: Caco-2, probe digoxin
ABCB1 (P-glycoprotein) [11] = biological target: T2, ABCB1 (P-glycoprotein); assay: TP_TRANSPORTER: inhibition of Digoxin transepithelial transport (basal to apical) (Digoxin: 5 uM, S-mephenytoin: 100 uM) in Caco-2 cells; assay type: functional, cell-based; conditions: Caco-2, probe digoxin
[12] = biological target: T1, ATP-dependent translocase ABCB1; assay: TP_TRANSPORTER: inhibition of Digoxin transepithelial transport (basal to apical)(Digoxin: 5 uM, 1-hydroxymidazolam: 100 uM) in Caco-2 cells; assay type: functional, cell-based; conditions: caco-2, 100 µM

T1 sequence (P08183 whole entry): as the sequence (P08183 whole entry) above

With `N=C(N)N1CCc2ccccc2C1` [DEBRISOQUIN] the Activity [1] was “substrate [+]”.

In the case of `COC(=O)C1=C(C)NC(C)=C(C(=O)OC)C1c1ccccc1[N+](=O)[O-]` [NIFEDIPINE], the Activity [1] is reported as “is not a substrate [-]”.

For `CC(C)(C)c1ccc(C(O)CCCN2CCC(C(O)(c3ccccc3)c3ccccc3)CC2)cc1` (centres undefined) [TERFENADINE], the inhibition at 10 µM (ABCB1 (P-glycoprotein) [2]) was 112%.

`C[C@]12CCC(=O)C=C1[C@H](O)C[C@@H]1[C@@H]2[C@@H](O)C[C@@]2(C)[C@H]1CC[C@]2(O)C(=O)CO` was tested, and the inhibition at 100 µM (ABCB1 (P-glycoprotein) [3]) was 57%.

With `CC[C@H](C)C(=O)O[C@H]1C[C@@H](C)C=C2C=C[C@H](C)[C@H](CC[C@@H]3C[C@@H](O)CC(=O)O3)[C@H]21` [LOVASTATIN] the inhibition at 100 µM (ABCB1 (P-glycoprotein) [4]) was 65%.

`CC[C@H]1OC(=O)[C@H](C)[C@@H](O[C@H]2C[C@@](C)(OC)[C@@H](O)[C@H](C)O2)[C@H](C)[C@@H](O[C@@H]2O[C@H](C)C[C@H](N(C)C)[C@H]2O)[C@](C)(O)C[C@@H](C)C(=O)[C@H](C)[C@@H](O)[C@]1(C)O` [ERYTHROMYCIN] was tested, and the inhibition at 100 µM (ABCB1 (P-glycoprotein) [5]) was 101%.

With `CC/C(=C(\c1ccccc1)c1ccc(OCCN(C)C)cc1)c1ccccc1` [TAMOXIFEN] the inhibition at 100 µM (ABCB1 (P-glycoprotein) [6]) was 86%.

In the case of IVERMECTIN, the Activity [7] is reported as “is not a substrate [-]”, the Activity [8] is reported as “is not a substrate [-]” and the Activity [9] is reported as “is not a substrate [-]”.

In the case of `Cc1ncc2n1-c1ccc(Cl)cc1C(c1ccccc1F)=NC2` [MIDAZOLAM], the Activity [1] is reported as “is not a substrate [-]” and the inhibition at 100 µM (ABCB1 (P-glycoprotein) [10]) is reported as 74%.

Compound `CC[C@@]1(c2ccccc2)NC(=O)N(C)C1=O` has an inhibition at 100 µM (ABCB1 (P-glycoprotein) [11]) of 42%.

`OCc1ncc2n1-c1ccc(Cl)cc1C(c1ccccc1F)=NC2` [ALPHA-HYDROXY-MIDAZOLAM] was tested, and the Activity [12] was 63.
